Data set [1] is described as follows: UV-Vis absorption spectrum in a solution state. It counts as physicochemical. The note with it: compared with the corresponding perylene diimide without tin ring.
The nature of data set [2]: Transient absorption spectrum and triplet decay. It counts as physicochemical. The note with it: dynamic absorption fitting at 485 nm in the transient absorption spectrum. How it is done:
(2) The transient absorption spectrum of 6-undecylamine derived tin cyclized perylene diimide (shown in FIG. 2) was tested, and a strong excited triplet absorption at 400 nm-515 nm was detected.
The decay time is 17 μs. 6-undecylamine derived tin cyclized perylene diimide has a relatively long triplet time life.

Data set [3] is described as follows: Singlet oxygen quantum yield by DPBF capture in DCM. It is filed as physicochemical. The settings on record: absorbance change at 414 nm. From the text: (4) The triplet energy of the photosensitizer can be transferred to triplet oxygen molecules (^3O2), to produce singlet oxygen molecules (^1O2). 1,3-diphenylisobenzofuran (DPBF) is used to capture singlet oxygen, and at the same time, DPBF itself is oxidized by ^1O2, resulting in a decrease in the absorption peak of DPBF at 414 nm in the UV-visible absorption spectrum. The singlet oxygen quantum yield of the photosensitizer molecule can be calculated by monitoring the absorbance change of DPBF at 414 nm. FIG. 4 is a graph showing decay of a UV-visible absorption of DPBF in DCM with time under the influence of 6-undecylamine derived tin cyclized perylene diimide as a photosensitizer. It is known from calculation that the singlet oxygen quantum yield of 6-undecylamine derived tin cyclized perylene diimide is 40%.

The test system of the next data set is cervical cancer cells. Description: DCFH-DA reactive oxygen imaging in cervical cancer cells. It counts as cell-based. The settings on record: cervical cancer cells with DCFH-DA. From the text: (5) The application of photosensitizers to photodynamic therapy requires the photosensitizers to have low cytotoxicity and capability of entering cells, and to achieve better singlet oxygen output in the cells. In cervical cancer cells, the fluorescent probe DCFH-DA, as a reactive oxygen detection reagent, is non-fluorescent and can freely penetrate the cell membrane to enter the cell. The reactive oxygen species (single oxygen) in the cells can oxidize the non-fluorescent DCFH to produce a fluorescent DCF, and the level of the reactive oxygen species can be known by detecting the fluorescence intensity of DCF. […] In the figure, fluorescence images of the cervical cancer cells, which are cultured in the presence of 6-undecylamine derived tin cyclized perylene diimide and DCFH-DA, subjected to no light, and 10 s, 20 s, 30 s of […] green light irradiation are respectively presented from left to right. It is known from the figure that the singlet oxygen generated from photosensitization of 6-undecylamine derived tin cyclized perylene diimide oxidizes DCFH to produce fluorescent DCF, which makes the fluorescence of cervical cancer cells appear by imaging, and the imaging effect becomes better along with the time.

As to `CCC[CH2][Sn]1([CH2]CCC)[c]2cc3c4c(ccc5c6ccc7c8c(c[c]1c(c2c45)c86)C(=O)N(c1cccc2[nH]ncc12)C7=O)C(=O)N(c1cccc2[nH]ncc12)C3=O` [Example B16], the Absorption spectrum entry in data set [1] is reported as “red shift”. The molecule also displayed a Triplet decay time in data set [2] of 19 μs. The “Singlet oxygen quantum yield” value in data set [3] is 46%.

In the case of `CCC[CH2][Sn]1([CH2]CCC)[c]2cc3c4c(ccc5c6ccc7c8c(c[c]1c(c2c45)c86)C(=O)N(c1cccc2ccccc12)C7=O)C(=O)N(c1cccc2ccccc12)C3=O` [Example B17], the Absorption spectrum entry in data set [1] is given as “red shift”. Further, the Triplet decay time in data set [2] turned out to be 11 μs. Besides, the “Singlet oxygen quantum yield” value in data set [3] is reported as 36%.

Take `CCC[CH2][Sn]1([CH2]CCC)[c]2cc3c4c(ccc5c6ccc7c8c(c[c]1c(c2c45)c86)C(=O)N(C1CCNCC1)C7=O)C(=O)N(C1CCNCC1)C3=O` [Example B22]: the Absorption spectrum entry in data set [1] is on record as “red shift”. The Triplet decay time in data set [2] was determined as 21 μs. For the same molecule, in data set [3], the “Singlet oxygen quantum yield” value was determined as 44%.

Consider `CCC[CH2][Sn]1([CH2]CCC)[c]2cc3c4c(ccc5c6ccc7c8c(c[c]1c(c2c45)c86)C(=O)N(CC(C)C)C7=O)C(=O)N(CC(C)C)C3=O` [Example B6], for which, in data set [1], the Absorption spectrum entry is reported as “red shift”. Besides, the Triplet decay time in data set [2] came out at 18 μs. For the same molecule, the “Singlet oxygen quantum yield” value in data set [3] is 29%.

Take `CCC[CH2][Sn]1([CH2]CCC)[c]2cc3c4c(ccc5c6ccc7c8c(c[c]1c(c2c45)c86)C(=O)N(c1ccncc1)C7=O)C(=O)N(c1ccncc1)C3=O` [Example B20]: in data set [1], the Absorption spectrum result is recorded as “red shift”. Besides, the Triplet decay time in data set [2] is given as 25 μs. Moreover, the “Singlet oxygen quantum yield” value in data set [3] stood at 42%.

As for `CCC[CH2][Sn]1([CH2]CCC)[c]2cc3c4c(ccc5c6ccc7c8c(c[c]1c(c2c45)c86)C(=O)N(c1ccc(C(C)(C)C)cc1)C7=O)C(=O)N(c1ccc(C(C)(C)C)cc1)C3=O` [Example B14], the Absorption spectrum result in data set [1] is given as “red shift”. Also, in data set [2], the Triplet decay time was 14 μs. Further, in data set [3], the “Singlet oxygen quantum yield” value is recorded as 33%.

As for `CCCCCC(CC(C)CCC)N1C(=O)c2ccc3c4ccc5c6c(c[c]7c(c8[c](cc(c2c38)C1=O)[Sn]7([CH2]CCC)[CH2]CCC)c64)C(=O)N(C(CCCCC)CC(C)CCC)C5=O` (centres unmarked) [Example B4], in data set [1], the Absorption spectrum result is listed as “red shift”. The same molecule gave a Triplet decay time in data set [2] of 17 μs. The “Singlet oxygen quantum yield” value in data set [3] is 47%.

On to `CCC[CH2][Sn]1([CH2]CCC)[c]2cc3c4c(ccc5c6ccc7c8c(c[c]1c(c2c45)c86)C(=O)N(CCCC(C)C)C7=O)C(=O)N(CCCCC(CC)CCC)C3=O` (centres unmarked) [Example B10], for which the Absorption spectrum result in data set [1] is recorded as “red shift”. This molecule also gave a Triplet decay time in data set [2] of 12 μs. Besides, the “Singlet oxygen quantum yield” value in data set [3] is 26%.

Regarding `CCCCCC(CCCCC)N1C(=O)c2ccc3c4ccc5c6c(c[c]7c(c8[c](cc(c2c38)C1=O)[Sn]7([CH2]CCC)[CH2]CCC)c64)C(=O)N(C(CCCCC)CCCCC)C5=O` [6-undecylamine derived tin cyclized perylene diimide], in the data set on cervical cancer cells (420 nm green light irradiation), the “irradiation time after which fluorescence intensity of cervical cancer cells no longer changes” value turned out to be 20 s. Besides, the “singlet oxygen effect in cells (DCF fluorescence)” value in the data set with cervical cancer cells (no light and 10 s, 20 s, 30 s of 420 nm green light irradiation) is reported as “good singlet oxygen effect in cells”. The Absorption spectrum result in data set [1] is given as “obvious red shift”. Further, the Triplet decay time in data set [2] stood at 17 μs. In addition, the “Singlet oxygen quantum yield” value in data set [3] is recorded as 40%.

These data come from patent US12018041B2, “Metal tin cyclized perylene diimide derivative, method for preparing the same, and method for using the same” (Dalian University of Technology, priority 2019, dated 2024).
